The source of these data is patent US8778966B2, “Quinolinone derivatives as PARP and tank inhibitors” (Janssen Pharmaceutica, NV, priority 2007, dated 2014).

The target in this assay is T1, Human PARP-1 enzyme (Homo sapiens, UniProt P09874).
T1 construct: purchased Trevigen
Nature of the assay: In vitro Scintillation Proximity Assay (SPA) for PARP-1 inhibitory activity. In kind it is biochemical. To be noted: read-out: in vitro SPA assay PARP-1 pIC50 (converted). The gist of the method: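 SPA assay: nicked-DNA-activated PARP-1 (0.1–0.2 μg/ml) ADP-ribosylates biotinylated histones (2 μg/ml) using [3H]-NAD+, 20 min at RT in Tris pH 8/DTT/MgCl2, stopped with 2 mM NAD+. Blank-subtracted cpm expressed as % control; IC50 by linear interpolation, reported as pIC50 (10−5 to 3×10−9 M tested).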

T1 sequence (P09874 whole entry): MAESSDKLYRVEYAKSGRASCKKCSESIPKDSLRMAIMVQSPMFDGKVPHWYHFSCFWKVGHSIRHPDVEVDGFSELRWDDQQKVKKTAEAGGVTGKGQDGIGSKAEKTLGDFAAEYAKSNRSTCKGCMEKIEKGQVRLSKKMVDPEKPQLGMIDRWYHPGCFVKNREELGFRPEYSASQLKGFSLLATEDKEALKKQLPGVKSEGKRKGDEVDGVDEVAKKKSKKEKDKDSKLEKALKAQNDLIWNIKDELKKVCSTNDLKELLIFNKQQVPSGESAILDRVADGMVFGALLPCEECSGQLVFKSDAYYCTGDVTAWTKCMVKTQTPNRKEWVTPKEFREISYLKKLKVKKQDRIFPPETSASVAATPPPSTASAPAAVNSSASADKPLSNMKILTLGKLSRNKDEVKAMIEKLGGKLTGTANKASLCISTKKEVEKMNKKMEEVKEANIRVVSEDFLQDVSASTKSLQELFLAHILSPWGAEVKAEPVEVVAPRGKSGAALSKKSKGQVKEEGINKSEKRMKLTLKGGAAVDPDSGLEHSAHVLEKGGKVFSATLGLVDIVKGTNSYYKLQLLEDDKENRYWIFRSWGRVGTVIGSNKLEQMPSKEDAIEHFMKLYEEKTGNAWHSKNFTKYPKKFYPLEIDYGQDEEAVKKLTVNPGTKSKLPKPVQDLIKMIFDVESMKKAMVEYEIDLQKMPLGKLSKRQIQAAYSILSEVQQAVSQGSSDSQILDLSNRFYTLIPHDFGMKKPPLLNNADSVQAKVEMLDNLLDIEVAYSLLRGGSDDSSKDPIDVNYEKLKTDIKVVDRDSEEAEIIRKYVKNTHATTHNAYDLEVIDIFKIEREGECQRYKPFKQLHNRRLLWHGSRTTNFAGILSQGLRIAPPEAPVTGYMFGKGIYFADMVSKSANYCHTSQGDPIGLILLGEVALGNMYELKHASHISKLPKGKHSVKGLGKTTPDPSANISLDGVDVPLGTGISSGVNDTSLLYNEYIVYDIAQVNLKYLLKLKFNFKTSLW

On to `CCc1cc2ccc(C(C)(C#N)Cc3ccc(Cl)nc3Cl)cc2[nH]c1=O` (stereo not shown) [Compound 212], for which the IC50 is 20 nM.

`CCc1cc2ccc(C(C)(C#N)Cc3cc(C)nc(C#N)c3)cc2[nH]c1=O` (stereo not shown) [Compound 328]: the IC50 was 63.1 nM.

`CCc1cc2ccc(C(C)(C#N)Cc3ccnc(C#N)c3)cc2[nH]c1=O` (stereo not shown) [Compound 324]: the IC50 was 39.8 nM.

In the case of `CCc1cc2ccc([C@@](C)(C#N)CN(C)Cc3ccc(C#N)cc3)cc2[nH]c1=O` (single isomer, unassigned) [Compound 253], the IC50 was 100 nM.

For `Cc1cc2ccc(C(C)(C#N)Cc3cccc(C#N)n3)cc2[nH]c1=O` (stereo not shown) [Compound 227], the IC50 was 100 nM.

Take `CCc1cc2ccc([C@](C)(C#N)CN(C)Cc3ccc(C#N)cc3)cc2[nH]c1=O` [Compound 190]: the IC50 is 63.1 nM.

`CCc1cc2ccc(C(C#N)(CC)Cc3cccc(CN)c3)cc2[nH]c1=O` (stereo not shown) [Compound 390]: the IC50 is 63.1 nM.

Consider `CCc1cc2ccc(C(C)(C#N)Cc3cccc(-c4cnn(C)c4)c3)cc2[nH]c1=O` (stereo not shown) [Compound 17], for which the IC50 is 251 nM.

As for `CCc1cc2ccc(C(C)(C#N)CCOc3nccc(OC)n3)cc2[nH]c1=O` (stereo not shown) [Compound 223], the IC50 was 50.1 nM.

As to `Cc1cc2ccc([C@@](C)(C#N)[C@@H]3CCCc4ccccc43)cc2[nH]c1=O` [Compound 382], the IC50 was 501 nM.

In the case of `CCc1cc2ccc(C(C)(C#N)CN(C)CCc3cn(C)c4ccccc34)cc2[nH]c1=O` (stereo not shown) [Compound 303], the IC50 is 63.1 nM.

In the case of `CCc1cc2ccc(C(C)(C#N)C3CCc4ccc(Br)cc43)cc2[nH]c1=O` (single isomer, unassigned) [Compound 381], the IC50 was 79.4 nM.

As to `CCc1cc2ccc(C(C)(C#N)Cc3cc(C)cc(C#N)c3)cc2[nH]c1=O` (stereo not shown) [Compound 174], the IC50 was 39.8 nM.

As for `CCc1cc2ccc(C(C)(C#N)Cc3cc(C)nc(Cl)c3)cc2[nH]c1=O` (stereo not shown) [Compound 326], the IC50 was 63.1 nM.

`CCc1cc2ccc(C(C)(C#N)CC3Oc4ccccc4O3)cc2[nH]c1=O` (stereo not shown) [Compound 398]: the IC50 is 100 nM.

With `CCc1cc2ccc(C(C)(C#N)CCCN(C)C(=O)c3ccc(F)cc3)cc2[nH]c1=O` (stereo not shown) [Compound 188], the IC50 is 79.4 nM.

In the case of `Cc1cc2ccc(C(C)(C#N)CCCCOc3ccccc3)cc2[nH]c1=O` (stereo not shown) [Compound 272], the IC50 was 126 nM.

For the molecule `CCc1cc2ccc(C(C)(C#N)Cc3cc(C)cc(Br)c3)cc2[nH]c1=O` (stereo not shown) [Compound 284], the IC50 was 31.6 nM.

For `CCc1cc2ccc(C(C)(C#N)Cc3cc(F)cc(F)c3)cc2[nH]c1=O` (stereo not shown) [Compound 402], the IC50 was 50.1 nM.

`CCc1cc2ccc(C(C)(C#N)Cc3cccc(O)c3)cc2[nH]c1=O` (stereo not shown) [Compound 22]: the IC50 is 126 nM.

In the case of `Cc1cc2ccc(C(C)(C#N)Cc3cc(F)cc(F)c3)cc2[nH]c1=O` (stereo not shown) [Compound 282], the IC50 is 100 nM.

Consider `CCC(=O)c1cccc(CC(C)(C#N)c2ccc3cc(C)c(=O)[nH]c3c2)c1` (stereo not shown) [Compound 173], for which the IC50 is 126 nM.

As for `CCc1cc2ccc(C(C)(C#N)Cc3nc(C)cc(OC)n3)cc2[nH]c1=O` (stereo not shown) [Compound 371], the IC50 is 100 nM.

`CCc1cc2ccc(C(C)(C#N)Cc3cccc(F)n3)cc2[nH]c1=O` (stereo not shown) [Compound 331]: the IC50 is 31.6 nM.

As to `Cc1cc2ccc(C(C)(C#N)Cc3cccc(Oc4ncccn4)c3)cc2[nH]c1=O` (stereo not shown) [Compound 191], the IC50 is 126 nM.

On to `CCc1cnc(OCCC(C)(C#N)c2ccc3cc(CC)c(=O)[nH]c3c2)nc1` (stereo not shown) [Compound 222], for which the IC50 was 50.1 nM.

As for `CCc1cc2ccc(C(C)(C#N)Cc3cc(F)cc(C#N)c3)cc2[nH]c1=O` (stereo not shown) [Compound 266], the IC50 was 50.1 nM.

For `CCc1cc2ccc([C@](C)(C#N)[C@H]3CCOc4ccccc43)cc2[nH]c1=O` (single isomer, unassigned) [Compound 394], the IC50 is 200 nM.

Take `Cc1cc2ccc([C@](C)(C#N)[C@@H]3CCc4cc(Br)ccc43)cc2[nH]c1=O` [Compound 242]: the IC50 is 158 nM.

For `CCc1cc2ccc([C@](C)(C#N)Cc3cc(F)cc(F)c3)cc2[nH]c1=O` [Compound 333], the IC50 was 31.6 nM.

Turning to `CCc1cc2ccc(C(C)(C#N)CCOc3ccnc(SC)n3)cc2[nH]c1=O` (stereo not shown) [Compound 348], the IC50 was 79.4 nM.

Take `CCc1cc2ccc(C(C#N)(CC)Cc3nc(OC)cc(OC)n3)cc2[nH]c1=O` (stereo not shown) [Compound 321]: the IC50 is 79.4 nM.

For `CCc1cc2ccc([C@@](C)(C#N)[C@H]3CCOc4ccccc43)cc2[nH]c1=O` (single isomer, unassigned) [Compound 395], the IC50 is 63.1 nM.

Regarding `CCc1cc2ccc(C(C)(C#N)C3CCc4ccc(Br)cc43)cc2[nH]c1=O` (single isomer, unassigned) [Compound 380], the IC50 was 126 nM.

As for `Cc1cc2ccc([C@](C)(C#N)C3CCc4cccnc43)cc2[nH]c1=O` (single isomer, unassigned) [Compound 388], the IC50 was 200 nM.

Turning to `Cc1cc2ccc(C(C)(C#N)C3CCc4ccc(Br)cc43)cc2[nH]c1=O` (stereo not shown) [Compound 249], the IC50 is 126 nM.

As for `CCc1cc2cc(C)c(C(C)(C#N)Cc3cccc(C#N)n3)cc2[nH]c1=O` (stereo not shown) [Compound 208], the IC50 was 100 nM.

On to `CCc1cc2ccc(C(C#N)(CC)Cc3cccc(C#N)n3)cc2[nH]c1=O` (stereo not shown) [Compound 342], for which the IC50 is 79.4 nM.

Consider `CCc1cc2ccc(C(C#N)(CC)Cc3cccc(F)c3)cc2[nH]c1=O` (stereo not shown) [Compound 270], for which the IC50 is 39.8 nM.

Take `CCc1cc2ccc(C(C)(C#N)Cc3ccc(OC)nc3Cl)cc2[nH]c1=O` (stereo not shown) [Compound 224]: the IC50 was 12.6 nM.

For the molecule `CCc1cc2ccc(C(C)(C#N)Cc3cccc(OCc4ccccc4)c3)cc2[nH]c1=O` (stereo not shown) [Compound 23], the IC50 is 1260 nM.

Consider `CCc1cc2ccc([C@](C)(C#N)C[C@H]3CCc4ccccc4O3)cc2[nH]c1=O` (single isomer, unassigned) [Compound 396], for which the IC50 was 100 nM.

Take `CCc1cc2ccc(C(C)(C#N)Cc3cc(OC)cc(OC)n3)cc2[nH]c1=O` (stereo not shown) [Compound 232]: the IC50 is 25.1 nM.

`CCc1cc2ccc(C(C)(C#N)Cc3cccc(N4CCOCC4)c3)cc2[nH]c1=O` (stereo not shown) [Compound 21]: the IC50 was 398 nM.

With `CCc1cc2ccc(C(C#N)(CC)Cc3nc(C#N)cc(OC)n3)cc2[nH]c1=O` (stereo not shown) [Compound 316], the IC50 is 39.8 nM.

As to `CCc1cc2ccc(C(C)(C#N)Cc3cccc(-c4ccccc4)c3)cc2[nH]c1=O` (stereo not shown) [Compound 18], the IC50 was 2000 nM.

With `CCc1cc2ccc(C(C)(C#N)Cc3cc4ccccc4nn3)cc2[nH]c1=O` (stereo not shown) [Compound 238], the IC50 was 39.8 nM.

For the molecule `Cc1cc2ccc([C@](C)(C#N)[C@@H]3CCc4ccc(Br)cc43)cc2[nH]c1=O` [Compound 406], the IC50 is 158 nM.

Take `CCc1cc2ccc([C@](C)(C#N)C[C@H]3Cc4ccccc4O3)cc2[nH]c1=O` [Compound 397]: the IC50 is 126 nM.

Regarding `CCc1cc2ccc(C(C#N)(CC)Cc3cccc(C#N)c3)cc2[nH]c1=O` (stereo not shown) [Compound 265], the IC50 is 20 nM.

With `CCc1cc2ccc(C(C)(C#N)Cc3cc(C#N)cc4c3OCC4)cc2[nH]c1=O` (stereo not shown) [Compound 236], the IC50 is 20 nM.

As for `CCOc1cc(C#N)nc(CC(C)(C#N)c2ccc3cc(CC)c(=O)[nH]c3c2)n1` (stereo not shown) [Compound 315], the IC50 was 63.1 nM.
